Assay results as given in PubChem BioAssay (NCI).
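Protocol summary: plate cells (96-well), add compound at 5 concentrations, incubate 48 h, interpolate endpoints linearly. GI50: concentration for 50% inhibition of growth. The concentration for full growth arrest is given as TGI.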

Columns and labels:
Experiment in all cases: NCI anticancer screen, dose series, 48 h
MOLT-4 leukemia = tested on: MOLT-4 leukemia
T-47D breast = tested on: T-47D breast
HL-60(TB) leukemia = tested on: HL-60(TB) leukemia
SW-620 colon = tested on: SW-620 colon
UACC-257 melanoma = tested on: UACC-257 melanoma
HS 578T breast = tested on: HS 578T breast
MALME-3M melanoma = tested on: MALME-3M melanoma
HT29 colon = tested on: HT29 colon
OVCAR-4 ovarian = tested on: OVCAR-4 ovarian
UO-31 renal = tested on: UO-31 renal
SR leukemia = tested on: SR leukemia
SF-268 CNS = tested on: SF-268 CNS
MDA-MB-435 = tested on: MDA-MB-435
SF-539 CNS = tested on: SF-539 CNS
SN12C renal = tested on: SN12C renal
SNB-19 CNS = tested on: SNB-19 CNS
K-562 leukemia = tested on: K-562 leukemia
NCI-H522 lung = tested on: NCI-H522 lung
SK-MEL-2 melanoma = tested on: SK-MEL-2 melanoma
IGROV1 ovarian = tested on: IGROV1 ovarian
A549 NSCLC = tested on: A549 NSCLC
HCT-116 colon = tested on: HCT-116 colon
SF-295 CNS = tested on: SF-295 CNS
ACHN renal = tested on: ACHN renal
HCC-2998 colon = tested on: HCC-2998 colon
MCF7 breast = tested on: MCF7 breast
LOX IMVI melanoma = tested on: LOX IMVI melanoma
CAKI-1 renal = tested on: CAKI-1 renal

SMILES: Oc1ccc(CSc2nnc(-c3ccc(Oc4ccccc4)cc3)n2-c2ccccc2)c2cccnc12
- GI50 (MOLT-4 leukemia): 100 nM
- TGI (MOLT-4 leukemia): > 38500 nM
- GI50 (T-47D breast): 263 nM
- TGI (T-47D breast): 9180 nM
- GI50 (HL-60(TB) leukemia): 79.8 nM
- TGI (HL-60(TB) leukemia): 1060 nM
- GI50 (SW-620 colon): 182 nM
- TGI (SW-620 colon): > 100000 nM
- GI50 (UACC-257 melanoma): 186 nM
- TGI (UACC-257 melanoma): 843 nM
- GI50 (HS 578T breast): 325 nM
- TGI (HS 578T breast): > 100000 nM
- GI50 (MALME-3M melanoma): 340 nM
- TGI (MALME-3M melanoma): 11000 nM
- GI50 (HT29 colon): 4100 nM
- TGI (HT29 colon): > 100000 nM
- GI50 (OVCAR-4 ovarian): 451 nM
- TGI (OVCAR-4 ovarian): > 72300 nM
- GI50 (UO-31 renal): 142 nM
- TGI (UO-31 renal): 2450 nM
- GI50 (SR leukemia): 66.4 nM
- TGI (SR leukemia): 20300 nM
- GI50 (SF-268 CNS): 73.9 nM
- TGI (SF-268 CNS): > 100000 nM
- GI50 (MDA-MB-435): 57 nM
- TGI (MDA-MB-435): > 100000 nM
- GI50 (SF-539 CNS): 230 nM
- TGI (SF-539 CNS): 9870 nM
- GI50 (SN12C renal): 275 nM
- TGI (SN12C renal): > 100000 nM
- GI50 (SNB-19 CNS): 223 nM
- TGI (SNB-19 CNS): > 100000 nM
- GI50 (K-562 leukemia): 155 nM
- TGI (K-562 leukemia): > 53100 nM
- GI50 (NCI-H522 lung): 226 nM
- GI50 (SK-MEL-2 melanoma): 442 nM
- TGI (SK-MEL-2 melanoma): > 25500 nM
- GI50 (IGROV1 ovarian): 166 nM
- TGI (IGROV1 ovarian): > 55900 nM
- GI50 (A549 NSCLC): 133 nM
- TGI (A549 NSCLC): > 33200 nM
- GI50 (HCT-116 colon): 41.3 nM
- TGI (HCT-116 colon): 16000 nM
- GI50 (SF-295 CNS): 208 nM
- TGI (SF-295 CNS): > 69200 nM
- GI50 (ACHN renal): 137 nM
- TGI (ACHN renal): 10900 nM
- GI50 (HCC-2998 colon): 154 nM
- TGI (HCC-2998 colon): > 100000 nM
- GI50 (MCF7 breast): 94.2 nM
- TGI (MCF7 breast): > 100000 nM
- GI50 (LOX IMVI melanoma): 169 nM
- TGI (LOX IMVI melanoma): 7180 nM
- GI50 (CAKI-1 renal): 313 nM
- TGI (CAKI-1 renal): 15200 nM
